Measured values from patent publication US10793551B2, “Benzimidazole-indole inhibitors of Mnk1 and Mnk2” (eFFECTOR Therapeutics, Inc., priority 2017, dated 2020).
pIC50: −log10 of the molar value.

Biological target: T1, MNK
T1 construct: 10 nM recombinant MNK1 (Life Technologies, PR9138A)
Assay: MNK Biochemical Enzymatic Assay (ADP-Glo kinase assay)
Settings: recombinant MNK1 (300 μM ATP) / MNK2 (10 μM ATP) described; table does not say which isoform; read-out: MNK Biochemical Enzymatic Assay (IC50) Potency
Description: Compounds are screened for MNK inhibition using the ADP-Glo kinase assay kit (Promega, catalogue No. V9101). All kinase reactions are performed in Reaction Buffer E (15 mM HEPES pH7.4, 20 mM NaCl, 1 mM EGTA, 10 mM MgCl2, 0.1 mg/ml BGG, and 0.02% Tween-20). Final MNK1 reactions contained 10 nM recombinant MNK1 (Life Technologies, PR9138A), 100 μM MNK substrate peptide Ac-TATKSGSTTKNR-NH2 (American Peptide Company), 300 μM ATP, and varying concentrations of the inhibitory compound of interest. Final MNK2 reactions contained 3 nM recombinant MNK2 (Life Technologies, PV5607), 50 μM MNK substrate peptide Ac-TATKSGSTTKNR-NH2 (American Peptide Company), 10 μM ATP, and varying concentrations of the inhibitory compound of interest. Final DMSO concentration in each reaction is 1%.
Kinase reactions are carried out in 96-well half-area white flat-bottom polystyrene plates in a final volume of 25 al. MNK1/2 enzymes are pre-incubated with compound and peptide substrate for 5 minutes prior to the addition of ATP. After the addition of ATP, kinase reactions are incubated at room temperature for 40 minutes. Reactions are subsequently stopped by the addition of 25 al of ADP-Glo Reagent and incubating for an additional 40 minutes. The final luminescent signal used for kinase activity readout is produced by the addition of 45 al of Kinase Detection Reagent (ADP-Glo kit, Promega) and incubating for 40 minutes. The luminescent signal is detected using a Victor 2 multilabel counter (Perkin Elmer) and the concentration of compound necessary to achieve inhibition of enzyme activity by 50% (IC50) is calculated using signals from an 8-point compound dilution series.
To this end, IC50 values of less than 1 μM are labeled as “+++”, from 1 to 10 μM are labeled as “++”, and from […] are labeled as “+”.

pIC50 | SMILES
5.00 to 6.00 | CC(C)Cc1c(C(N)=O)ccc2c1ncn2-c1ncnc(N)c1Cl [Compound 13F, 1-(6-amino-5-chloropyrimidin-4-yl)-4-isobutyl-1H-benzo[d]imidazole-5-carboxamide]
4.00 to 5.00 | CC(C)Cc1c(C(N)=O)ccc2c1ccn2-c1ncnc(N)c1Cl [Compound 8F, 1-(6-amino-5-chloropyrimidin-4-yl)-4-isobutyl-1H-indole-5-carboxamide]
5.00 to 6.00 | CC(C)Cc1c(C(N)=O)ccc2c1cnn2-c1ncnc(N)c1Cl [Compound 12F, 1-(6-amino-5-chloropyrimidin-4-yl)-4-isobutyl-1H-indazole-5-carboxamide]
5.00 to 6.00 | CC(C)Cc1c(C(=O)N(C)C)ccc2c1ncn2-c1ncnc(N)c1Cl [Compound 10F, 1-(6-amino-5-chloropyrimidin-4-yl)-4-isobutyl-N,N-dimethyl-1H-benzo[d]imidazole-5-carboxamide]
5.00 to 6.00 | CC(C)Cc1c(C(=O)N(C)C)ccc2c1ncn2-c1cc(N)ncn1 [Compound 11F, 1-(6-aminopyrimidin-4-yl)-4-isobutyl-N,N-dimethyl-1H-benzo[d]imidazole-5-carboxamide]
> 6.00 | CC(C)Cc1c(C(N)=O)ccc2c(-c3ncnc(N)c3Cl)cn(C)c12 [Compound 9F, 3-(6-amino-5-chloropyrimidin-4-yl)-7-isobutyl-1-methyl-1H-indole-6-carboxamide]
